For data set [1], the system named is Mus musculus. Description: Antinociceptive activity in mouse up to 100 mg/kg, ip by hot plate test. The data set is classed as functional, organism-based. Further details: dose 100 mg/kg.
Data set [2] deals with Mus musculus. Description: Antinociceptive activity in late phase ip dosed mouse by formalin test. The data set is classed as functional.
Data set [3] relates to Mus musculus. The data set is described as follows: Antinociceptive activity in late phase po dosed mouse by formalin test. The data set is classed as functional.
Data set [4] concerns Rattus norvegicus. The data set is described as follows: Antiinflammatory activity in rat persistent inflammatory pain model assessed as inhibition of carrageenan-induced mechanical hyperalgesia at 100 mg/kg, po. The data set is classed as functional.
The target in data set [5] is T1, 5-hydroxytryptamine receptor 1A (Rattus norvegicus, UniProt P19327).
T1 sequence (P19327 whole entry): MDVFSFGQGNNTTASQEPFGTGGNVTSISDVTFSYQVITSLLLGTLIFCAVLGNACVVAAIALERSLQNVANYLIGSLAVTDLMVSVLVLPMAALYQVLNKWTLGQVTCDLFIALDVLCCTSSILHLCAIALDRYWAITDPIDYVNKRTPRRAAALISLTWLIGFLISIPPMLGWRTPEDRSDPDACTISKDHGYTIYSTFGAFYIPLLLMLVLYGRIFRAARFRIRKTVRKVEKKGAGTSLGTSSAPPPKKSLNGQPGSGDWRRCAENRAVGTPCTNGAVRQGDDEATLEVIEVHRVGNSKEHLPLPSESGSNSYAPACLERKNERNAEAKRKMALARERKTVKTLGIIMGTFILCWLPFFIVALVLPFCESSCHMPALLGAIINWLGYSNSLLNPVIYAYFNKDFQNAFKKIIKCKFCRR
The data set is described as follows: Displacement of [3H]-8-OH-DPAT from 5HT1A receptor in rat hippocampus. Type of data set: tissue-based. A general note: Loss of bound radioactivity is the signal in a displacement assay; it reports binding, not function.

Data set [6] concerns Mus musculus. The data set is described as follows: Analgesic activity in mouse assessed as inhibition of acetic acid-induced writhing response at 10 mg/kg, po administered 0.5 to 1 hr before acetic acid challenge. The data set is classed as functional.
Data set [7] deals with Mus musculus. Description: Analgesic activity in ip dosed mouse assessed as inhibition of acetic acid-induced writhing response administered 0.5 to 1 hr before acetic acid challenge. Type of data set: functional. On the technique in general: Writhing tests count abdominal constrictions after an irritant is injected.
Data set [8] deals with Mus musculus. Description: Neurotoxicity in mouse at 20 mg/kg, ip by rotarod test. The data set is classed as toxicity, organism-based. Further details: dose 20 mg/kg, route intraperitoneal. To be noted: in vivo. Background: The rotarod test checks motor coordination on a turning rod.
For data set [9], the system named is Mus musculus. Description: Analgesic activity in mouse assessed as inhibition of acetic acid-induced writhing response at 10 mg/kg, ip administered 0.5 to 1 hr before acetic acid challenge. Type of data set: functional. Particulars: route intraperitoneal.
In data set [10] the test system is Mus musculus. The data set is described as follows: Neurotoxicity in mouse at 100 mg/kg, ip by rotarod test. The data set is classed as toxicity, organism-based. Particulars: in vivo. Further details: dose 100 mg/kg, route intraperitoneal.
Data set [11] deals with Mus musculus. The data set is described as follows: Neurotoxicity in mouse assessed as myoreflexation or sedation at 52.7 mg/kg, ip by rotarod test. Particulars: in vivo. The data set is classed as toxicity, organism-based. Further details: dose 52.7 mg/kg, route intraperitoneal.
Data set [12] relates to Mus musculus. Description: Neurotoxicity in mouse assessed as myoreflexation or sedation at 139 mg/kg, po by rotarod test. The data set is classed as toxicity, organism-based. Further details: dose 139 mg/kg, route oral. To be noted: in vivo.
Data set [13] has as its target 5-hydroxytryptamine receptor 2A (Rattus norvegicus, UniProt P14842). Description: Displacement of [3H]-ketanserin from 5HT2A receptor in rat cortical membrane. The data set is classed as cell membranes.
Data set [14] concerns Mus musculus. Description: Analgesic activity in po dosed mouse assessed as inhibition of acetic acid-induced writhing response administered 0.5 to 1 hr before acetic acid challenge. Type of data set: functional.
Data set [15] in a line: Half life in human liver microsomes by LC/MS/MS. The data set is classed as ADME, Microsome.
A short description of data set [16]: Half life in rat liver microsomes by LC/MS/MS. The data set is classed as ADME, Microsome.
For data set [17], the system named is Mus musculus. Description: Antinociceptive activity in po dosed mouse by hot plate test. Type of data set: functional.
Data set [18] is filed under the species Mus musculus. The data set is described as follows: Antinociceptive activity in mouse by hot plate test in presence of naloxone. The data set is classed as functional, organism-based.
Data set [19] concerns Rattus norvegicus. The data set is described as follows: Antiinflammatory activity in po dosed rat persistent inflammatory pain model assessed as inhibition of carrageenan-induced mechanical hyperalgesia. Type of data set: functional.
Data set [20] in a line: Tmax in rat at 15 mg/kg, po. Further details: dose 15 mg/kg, route oral. The data set is classed as ADME, organism-based. To be noted: in vivo.
Data set [21] is described as follows: Cmax in rat at 15 mg/kg, iv. Particulars: in vivo. Further details: dose 15 mg/kg, route intravenous. The data set is classed as ADME, organism-based.
Data set [22] is described as follows: Cmax in rat at 15 mg/kg, po. Type of data set: ADME, organism-based. Set-up: dose 15 mg/kg, route oral. To be noted: in vivo.
Data set [23] can be described thus: AUCall in rat at 15 mg/kg, iv. Set-up: dose 15 mg/kg, route intravenous. Type of data set: ADME, organism-based. Particulars: plasma.
A short description of data set [24]: AUCall in rat at 15 mg/kg, po. Further details: dose 15 mg/kg, route oral. The data set is classed as ADME, organism-based. Particulars: plasma.
A short description of data set [25]: Clearance in rat at 15 mg/kg, iv. The data set is classed as ADME, organism-based. Further details: dose 15 mg/kg, route intravenous. Particulars: in vivo.
The nature of data set [26]: Volume of distribution at steady state in rat at 15 mg/kg, iv. To be noted: in vivo, read-out: Vdss. Set-up: dose 15 mg/kg, route intravenous. Type of data set: ADME, organism-based.
A short description of data set [27]: Half life in rat at 15 mg/kg, iv. To be noted: in vivo. Type of data set: ADME, organism-based. Further details: dose 15 mg/kg, route intravenous.
Data set [28] in a line: Oral bioavailability in rat at 15 mg/kg. To be noted: in vivo. The data set is classed as ADME, organism-based.
In data set [29] the target is 5-hydroxytryptamine receptor 2B (Homo sapiens, UniProt P41595). The data set is described as follows: Binding affinity to 5HT2B receptor.
5-hydroxytryptamine receptor 2B, sequence (P41595 whole entry): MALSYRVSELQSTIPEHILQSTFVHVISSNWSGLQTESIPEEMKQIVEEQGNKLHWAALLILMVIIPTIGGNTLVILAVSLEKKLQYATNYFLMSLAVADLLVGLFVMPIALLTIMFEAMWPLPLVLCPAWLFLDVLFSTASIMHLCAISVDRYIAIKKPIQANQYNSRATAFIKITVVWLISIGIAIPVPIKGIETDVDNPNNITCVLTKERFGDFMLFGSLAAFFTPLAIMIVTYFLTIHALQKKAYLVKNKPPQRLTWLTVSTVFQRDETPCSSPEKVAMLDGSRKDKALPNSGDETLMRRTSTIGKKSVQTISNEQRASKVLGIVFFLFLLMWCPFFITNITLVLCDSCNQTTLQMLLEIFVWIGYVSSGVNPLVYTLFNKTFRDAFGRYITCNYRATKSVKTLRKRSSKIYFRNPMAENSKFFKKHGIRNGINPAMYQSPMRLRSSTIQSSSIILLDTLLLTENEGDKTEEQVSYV
Data set [30] concerns the target Sigma non-opioid intracellular receptor 1 (Homo sapiens, UniProt Q99720). Description: Binding affinity to Sigma1.
Data set [31] concerns the target Sodium-dependent noradrenaline transporter (Homo sapiens) (UniProt P23975). Description: Binding affinity to norepinephrine transporter at 10 uM.
Data set [32] in a line: Binding affinity to opioid receptor at 10 uM.
Data set [33] in a line: Binding affinity to prostaglandin synthetase at 10 uM.
Data set [34] has as its target 5-hydroxytryptamine receptor 2A (Homo sapiens, UniProt P28223). Description: Antagonist activity at 5HT2A receptor. Type of data set: functional.
Data set [35] has as its system Mus musculus. The data set is described as follows: Inhibition of DOI-induced head twitches in ip dosed mouse. The data set is classed as functional, organism-based.
Data set [36] deals with Mus musculus. Description: Inhibition of DOI-induced head twitches in mouse at 0.3 mg/kg, ip. Particulars: route intraperitoneal. The data set is classed as functional.
Data set [37] has as its system Mus musculus. The data set is described as follows: Inhibition of DOI-induced head twitches in mouse at 1 mg/kg, ip. The data set is classed as functional. Particulars: route intraperitoneal.
Data set [38] deals with Mus musculus. The data set is described as follows: Inhibition of DOI-induced head twitches in mouse at 3 mg/kg, ip. Type of data set: functional. To be noted: route intraperitoneal.
Data set [39] concerns Mus musculus. The data set is described as follows: Inhibition of 5-hydroxytryptophan-induced head twitches in mouse at 3 mg/kg, ip. The data set is classed as functional. Particulars: route intraperitoneal.
Data set [40] deals with Mus musculus. Description: Inhibition of 5-hydroxytryptophan-induced head twitches in mouse at 10 mg/kg, ip. Particulars: route intraperitoneal. The data set is classed as functional.
Data set [41] in a line: Half life in rat at 15 mg/kg, po. Type of data set: ADME, organism-based. Set-up: dose 15 mg/kg, route oral. To be noted: in vivo.
The test system of data set [42] is Mus musculus. Description: Neurotoxicity in mouse at 60 mg/kg, ip by rotarod test. Type of data set: toxicity, organism-based. Set-up: dose 60 mg/kg, route intraperitoneal. To be noted: in vivo.
The subject of data set [43] is Mus musculus. Description: Neurotoxicity in mouse at 30 mg/kg, ip by rotarod test. Type of data set: toxicity, organism-based. Further details: dose 30 mg/kg, route intraperitoneal. To be noted: in vivo.

By ED50 is commonly meant the dose that gives a 50% effect, or the effect in half of the subjects. As a reminder, the inhibition in vivo is how much of the control response was suppressed. As usually defined, the IC50 is the point on the concentration scale where inhibition reaches its midpoint. By half-life is commonly meant how long it takes for the measured level to halve. A high value points to slow decline. By Tmax is commonly meant the time at which the peak concentration occurs. Broadly, the Cmax is the peak of the concentration-time curve. In general, AUC refers to concentration integrated over time. A high value points to high exposure. What is called clearance is the volume of plasma or blood freed of the substance per unit of time. One may read the bioavailability as dose-corrected exposure relative to a reference, in per cent. High values mean much systemic uptake, low ones little systemic uptake. In general, Ki refers to a measure of affinity in units of concentration, obtained from inhibition or displacement. Higher therefore signals weaker binding.

Activity calls are given as the source filed them. The rule behind the calls is not given here.

Sodium-dependent noradrenaline transporter (Homo sapiens), sequence (P23975 whole entry): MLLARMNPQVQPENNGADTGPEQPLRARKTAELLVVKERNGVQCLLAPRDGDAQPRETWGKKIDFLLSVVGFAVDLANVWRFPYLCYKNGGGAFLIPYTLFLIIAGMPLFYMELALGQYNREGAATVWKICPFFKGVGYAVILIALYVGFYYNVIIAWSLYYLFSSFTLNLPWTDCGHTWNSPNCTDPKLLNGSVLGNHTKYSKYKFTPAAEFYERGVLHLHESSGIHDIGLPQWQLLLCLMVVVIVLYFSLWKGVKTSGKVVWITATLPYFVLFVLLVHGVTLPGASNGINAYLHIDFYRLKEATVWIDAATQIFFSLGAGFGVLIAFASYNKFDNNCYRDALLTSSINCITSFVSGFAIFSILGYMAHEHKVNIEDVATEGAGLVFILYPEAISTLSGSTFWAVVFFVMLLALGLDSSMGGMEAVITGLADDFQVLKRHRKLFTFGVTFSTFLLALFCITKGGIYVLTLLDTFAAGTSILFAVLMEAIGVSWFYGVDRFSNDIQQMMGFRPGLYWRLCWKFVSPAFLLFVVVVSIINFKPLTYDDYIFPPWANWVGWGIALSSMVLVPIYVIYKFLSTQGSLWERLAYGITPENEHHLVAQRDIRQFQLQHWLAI
5-hydroxytryptamine receptor 2A (Homo sapiens, UniProt P28223), sequence (P28223 whole entry): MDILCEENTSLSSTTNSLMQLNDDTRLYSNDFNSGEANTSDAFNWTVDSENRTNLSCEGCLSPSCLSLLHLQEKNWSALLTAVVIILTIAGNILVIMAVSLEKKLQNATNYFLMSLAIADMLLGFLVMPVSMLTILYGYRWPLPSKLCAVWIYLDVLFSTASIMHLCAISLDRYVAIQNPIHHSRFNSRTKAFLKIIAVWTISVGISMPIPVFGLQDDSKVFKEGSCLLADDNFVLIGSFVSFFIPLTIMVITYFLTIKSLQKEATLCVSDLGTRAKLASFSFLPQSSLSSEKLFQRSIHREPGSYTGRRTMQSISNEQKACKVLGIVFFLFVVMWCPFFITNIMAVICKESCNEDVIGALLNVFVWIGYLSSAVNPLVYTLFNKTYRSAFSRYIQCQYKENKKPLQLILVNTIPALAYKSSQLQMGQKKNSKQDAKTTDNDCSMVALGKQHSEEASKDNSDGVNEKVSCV
5-hydroxytryptamine receptor 2A (Rattus norvegicus, UniProt P14842), sequence (P14842 whole entry): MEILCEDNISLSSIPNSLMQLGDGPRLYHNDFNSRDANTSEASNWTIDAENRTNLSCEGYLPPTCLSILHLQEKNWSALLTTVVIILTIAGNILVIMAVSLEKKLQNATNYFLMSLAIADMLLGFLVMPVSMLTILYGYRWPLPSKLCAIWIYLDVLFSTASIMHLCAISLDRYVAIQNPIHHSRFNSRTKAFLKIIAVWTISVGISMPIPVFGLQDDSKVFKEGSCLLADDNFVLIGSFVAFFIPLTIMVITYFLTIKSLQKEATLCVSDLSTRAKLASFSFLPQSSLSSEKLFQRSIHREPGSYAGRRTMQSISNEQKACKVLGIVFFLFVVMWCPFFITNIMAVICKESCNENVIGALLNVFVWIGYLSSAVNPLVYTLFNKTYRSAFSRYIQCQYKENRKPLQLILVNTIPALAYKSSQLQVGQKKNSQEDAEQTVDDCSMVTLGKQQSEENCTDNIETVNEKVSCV
Sigma non-opioid intracellular receptor 1, sequence (Q99720 whole entry): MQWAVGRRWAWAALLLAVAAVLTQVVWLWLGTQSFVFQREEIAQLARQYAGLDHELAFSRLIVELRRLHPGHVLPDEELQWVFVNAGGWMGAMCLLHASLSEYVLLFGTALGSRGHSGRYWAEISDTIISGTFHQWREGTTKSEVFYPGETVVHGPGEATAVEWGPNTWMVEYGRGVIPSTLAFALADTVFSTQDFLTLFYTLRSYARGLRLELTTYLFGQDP

Consider `O=C(c1ccccc1)c1ccc2n1CCC2C(=O)O` (stereo not drawn) [KETOROLAC], for which the result with Mus musculus [1] was inactive. The results for the ED50 in the data set with Mus musculus [2] and in the data set with Mus musculus [3] were 12.9 mg/kg and 17.9 mg/kg, respectively. The inhibition in vivo at 100 mg/kg with Rattus norvegicus [4] turned out to be 36.4%.

`NC(=O)OC(CCN1CCN(c2ccc(F)cc2)CC1)c1ccccc1` (single isomer, unassigned) returned an IC50 in [5] of 10.5 µM. Moreover, in the data set with Mus musculus [6], the inhibition in vivo at 10 mg/kg came out at 88%. Also, in the data set with Mus musculus [7], the median effective dose (ED50) came out at 0.55 mg/kg. In addition, in the data set on Mus musculus [8], the Activity entry is “Toxic”.

Consider `NC(=O)OC(CCN1CCN(c2cccc(C(F)(F)F)c2)CC1)c1ccccc1` (stereo not drawn), for which the inhibition in vivo at 10 mg/kg in the data set with Mus musculus [9] came to 14.6%. The Activity entry in the data set on Mus musculus [10] is given as “Toxic”.

As for `COc1ccc(N2CCN(CC[C@@H](OC(N)=O)c3ccccc3)CC2)cc1`, the Activity result was “Non-toxic” with Mus musculus [11], “Non-toxic” in the data set on Mus musculus [12] and “Dose-dependent effect” in the data set on Rattus norvegicus [19]. Also, the values for the IC50 in data set [5], in data set [13] and in data set [34] were 8.82 µM, 5.77 µM and 5.8 µM, respectively. For the same compound, the median effective dose (ED50) was found to be 2.65 mg/kg in the data set on Mus musculus [14], 0.94 mg/kg with Mus musculus [7], 2.86 mg/kg with Mus musculus [17] and 0.68 mg/kg with Rattus norvegicus [19]. In addition, the half-life in data set [15] is 5.32 h; in data set [16], 1.52 h; in data set [27], 1.8 h; in [41], 2.6 h. Further, the outcome in the data set filed under Mus musculus [18] was Active. The time to peak (Tmax) in data set [20] amounted to 1.1 h. Besides, the Cmax in data set [21] is 9950 ng/mL; in [22] it was 2200 ng/mL. The results for the exposure (AUC) in [23] and in [24] were 17800 ng·h/mL and 13200 ng·h/mL, respectively. Further, in [25], the clearance was 14.1 mL/min/kg. In addition, the Vd in [26] came to 1.77 L/kg. The compound further yielded a bioavailability in data set [28] of 73.8%. For the same compound, the Ki in data set [29] turned out to be 0.164 µM; in [30] it was 0.392 µM. The inhibition result in data set [31], in data set [32] and in [33] was “inactive” each time. The inhibition entry with Mus musculus [35] is “Dose-dependent effect”. This compound also had an inhibition in vivo at 0.3 mg/kg in the data set with Mus musculus [36] of 40%. In the data set on Mus musculus [37], this compound had an inhibition in vivo at 1 mg/kg of 61.4%. Further, the values for the inhibition in vivo at 3 mg/kg in the data set on Mus musculus [38] and with Mus musculus [39] were 89.3% and 46.2%, respectively. The same compound had an inhibition in vivo at 10 mg/kg in the data set on Mus musculus [40] of 100%.

Turning to `NC(=O)OC(CCN1CCN(c2cccc(Cl)c2)CC1)c1ccccc1` (stereo not drawn), in the data set on Mus musculus [7], the 50% effective dose (ED50) came to 0.57 mg/kg. Further, in the data set on Mus musculus [42], the Activity result was “Toxic”.

`COc1ccccc1N1CCN(CCC(OC(N)=O)c2ccccc2)CC1` (single isomer, unassigned): the 50% effective dose (ED50) in the data set with Mus musculus [7] worked out at 0.67 mg/kg. Moreover, the Activity result in the data set with Mus musculus [43] was “Toxic”.
